In ChEMBL document CHEMBL1201862, “PubChem BioAssay data set” (2004):
Activity calls are given as the source filed them.

Tests used:
[1] = target: Heat shock protein HSP 90-alpha (Homo sapiens, UniProt P07900); assay type: functional, organism-based
[2] = non-specific 3'UTR reporter inhibition in Clone20-Shn3RL – cell-based, Renilla luciferase, cherry-picked, counter-screen for Shn3 inhibitor project, dose response (AID 624133); assay type: functional
[3] = reduction of Shn3 3'UTR-driven luciferase in osteoblasts – cell-based, Clone20 osteoblasts, firefly luciferase, cherry-picked, dose response (AID 624132); assay type: functional;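 further: firefly luciferase luminescence from reporter carrying the Shn3 3'UTR in osteoblasts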
Aurora kinase B = Aurora kinase B (Homo sapiens, UniProt Q96GD4); assay type: functional
Sequence of Aurora kinase B (Q96GD4 whole entry): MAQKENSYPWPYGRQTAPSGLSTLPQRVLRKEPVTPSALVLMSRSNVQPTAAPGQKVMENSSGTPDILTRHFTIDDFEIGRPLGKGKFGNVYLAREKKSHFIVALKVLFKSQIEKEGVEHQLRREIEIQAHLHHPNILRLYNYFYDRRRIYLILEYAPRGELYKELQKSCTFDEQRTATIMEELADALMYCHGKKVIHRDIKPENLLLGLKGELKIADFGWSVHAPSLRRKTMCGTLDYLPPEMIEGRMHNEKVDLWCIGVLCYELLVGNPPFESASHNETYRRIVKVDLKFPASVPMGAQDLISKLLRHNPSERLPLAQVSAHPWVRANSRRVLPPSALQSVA

[4] = target: Cyclin-dependent kinase 7 (Homo sapiens, UniProt P50613); assay type: functional;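 further: value comes from a kinome-wide kinase profiling panel in which CDK7 is one member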
Sequence of Cyclin-dependent kinase 7 (P50613 whole entry): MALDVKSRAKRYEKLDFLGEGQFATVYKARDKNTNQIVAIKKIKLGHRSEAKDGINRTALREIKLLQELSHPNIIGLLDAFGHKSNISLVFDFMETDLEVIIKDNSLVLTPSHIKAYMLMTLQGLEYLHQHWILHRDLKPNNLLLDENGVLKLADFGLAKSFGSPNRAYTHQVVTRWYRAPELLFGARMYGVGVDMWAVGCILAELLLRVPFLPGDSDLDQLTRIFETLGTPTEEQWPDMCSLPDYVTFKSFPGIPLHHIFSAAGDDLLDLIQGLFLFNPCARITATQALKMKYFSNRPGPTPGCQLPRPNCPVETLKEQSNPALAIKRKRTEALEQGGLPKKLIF

[5] = target: Mitogen-activated protein kinase 9 (Homo sapiens, UniProt P45984); assay type: functional;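 further: value from a kinome panel profiling assay, MAPK9 panel entry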
[6] = target: Serine/threonine-protein kinase TAO1 (Homo sapiens, UniProt Q7L7X3); assay type: functional
[7] = target: Hepatocyte growth factor receptor (Homo sapiens, UniProt P08581); assay type: functional;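 further: kinase panel profiling across the kinome, with MET as the panel member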
LIM domain kinase 1 = LIM domain kinase 1 (Homo sapiens, UniProt P53667); experiment: Navigating the Kinome. Panel member name: LIMK1; assay type: functional
[8] = target: Inhibitor of nuclear factor kappa-B kinase subunit epsilon (Homo sapiens, UniProt Q14164); experiment: Navigating the Kinome. Panel member name: IKBKE; assay type: functional
[9] = target: Casein kinase I isoform alpha (Homo sapiens, UniProt P48729); assay type: functional
[10] = target: Tyrosine-protein kinase Lck (Homo sapiens, UniProt P06239); assay type: functional;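 further: lck was assayed as one member of a kinase panel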
Aurora kinase A = target: T1, Aurora kinase A (Homo sapiens, UniProt O14965); assay type: functional;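 further: value from the Navigating the Kinome kinase panel profiling, panel entry STK6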
T1 sequence (O14965 whole entry): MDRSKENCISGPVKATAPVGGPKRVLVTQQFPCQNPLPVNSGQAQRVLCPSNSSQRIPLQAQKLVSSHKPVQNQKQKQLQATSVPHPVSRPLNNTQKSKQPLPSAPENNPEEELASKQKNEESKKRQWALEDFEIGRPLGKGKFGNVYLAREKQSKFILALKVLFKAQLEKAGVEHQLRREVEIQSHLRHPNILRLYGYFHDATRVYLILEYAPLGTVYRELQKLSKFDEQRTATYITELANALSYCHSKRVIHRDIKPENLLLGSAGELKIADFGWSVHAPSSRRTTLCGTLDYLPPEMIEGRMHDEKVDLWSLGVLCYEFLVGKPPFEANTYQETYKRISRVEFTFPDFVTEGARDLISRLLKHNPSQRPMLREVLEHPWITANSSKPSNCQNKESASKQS

[11] = target: Serine/threonine-protein kinase D3 (Homo sapiens, UniProt O94806); assay type: functional;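 further: determined within a kinase panel screen, with PRKCN as the panel member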
[12] = target: G protein-coupled receptor kinase 5 (Homo sapiens, UniProt P34947); experiment: Navigating the Kinome. Panel member name: GPRK5; assay type: functional
[13] = target: Insulin-like growth factor 1 receptor (Homo sapiens, UniProt P08069); experiment: Navigating the Kinome. Panel member name: IGF1R; assay type: functional
Activated CDC42 kinase 1 = Activated CDC42 kinase 1 (Homo sapiens, UniProt Q07912); experiment: Navigating the Kinome. Panel member name: ACK1; assay type: functional
[14] = target: Tyrosine-protein kinase ABL1 (Homo sapiens, UniProt P00519); assay type: functional
[15] = target: Rho-associated protein kinase 1 (Homo sapiens, UniProt Q13464); assay type: functional;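 further: measured within a broad kinome-wide panel profiling many kinases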
[16] = target: Macrophage-stimulating protein receptor (Homo sapiens, UniProt Q04912); experiment: Navigating the Kinome. Panel member name: MST1R; assay type: functional
[17] = target: BDNF/NT-3 growth factors receptor (Homo sapiens, UniProt Q16620); assay type: functional;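 further: NTRK2 measured as one member of a broad kinome-wide kinase profiling panel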
Sequence of BDNF/NT-3 growth factors receptor (Q16620 whole entry): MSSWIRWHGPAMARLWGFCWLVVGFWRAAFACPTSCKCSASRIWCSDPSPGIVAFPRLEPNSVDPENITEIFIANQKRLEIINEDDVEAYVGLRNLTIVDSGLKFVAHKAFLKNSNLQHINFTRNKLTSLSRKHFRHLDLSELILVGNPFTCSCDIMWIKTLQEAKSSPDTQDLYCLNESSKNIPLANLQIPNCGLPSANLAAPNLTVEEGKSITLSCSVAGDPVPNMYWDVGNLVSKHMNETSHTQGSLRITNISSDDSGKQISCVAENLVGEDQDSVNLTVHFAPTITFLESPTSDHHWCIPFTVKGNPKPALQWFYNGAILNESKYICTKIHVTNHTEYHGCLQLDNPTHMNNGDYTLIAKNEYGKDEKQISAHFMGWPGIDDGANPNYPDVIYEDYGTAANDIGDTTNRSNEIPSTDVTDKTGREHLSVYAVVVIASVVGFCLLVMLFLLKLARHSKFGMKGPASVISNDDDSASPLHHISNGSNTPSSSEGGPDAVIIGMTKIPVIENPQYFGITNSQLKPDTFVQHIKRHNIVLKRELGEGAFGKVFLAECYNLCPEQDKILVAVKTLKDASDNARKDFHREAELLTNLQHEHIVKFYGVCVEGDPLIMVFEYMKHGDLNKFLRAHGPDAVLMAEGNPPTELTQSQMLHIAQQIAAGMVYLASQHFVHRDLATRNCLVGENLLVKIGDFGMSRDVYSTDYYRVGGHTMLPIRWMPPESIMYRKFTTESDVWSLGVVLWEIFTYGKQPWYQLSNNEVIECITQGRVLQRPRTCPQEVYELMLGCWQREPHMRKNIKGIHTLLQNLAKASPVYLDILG

[18] = target: Vascular endothelial growth factor receptor 2 (Homo sapiens, UniProt P35968); assay type: functional
Sequence of Vascular endothelial growth factor receptor 2 (P35968 whole entry): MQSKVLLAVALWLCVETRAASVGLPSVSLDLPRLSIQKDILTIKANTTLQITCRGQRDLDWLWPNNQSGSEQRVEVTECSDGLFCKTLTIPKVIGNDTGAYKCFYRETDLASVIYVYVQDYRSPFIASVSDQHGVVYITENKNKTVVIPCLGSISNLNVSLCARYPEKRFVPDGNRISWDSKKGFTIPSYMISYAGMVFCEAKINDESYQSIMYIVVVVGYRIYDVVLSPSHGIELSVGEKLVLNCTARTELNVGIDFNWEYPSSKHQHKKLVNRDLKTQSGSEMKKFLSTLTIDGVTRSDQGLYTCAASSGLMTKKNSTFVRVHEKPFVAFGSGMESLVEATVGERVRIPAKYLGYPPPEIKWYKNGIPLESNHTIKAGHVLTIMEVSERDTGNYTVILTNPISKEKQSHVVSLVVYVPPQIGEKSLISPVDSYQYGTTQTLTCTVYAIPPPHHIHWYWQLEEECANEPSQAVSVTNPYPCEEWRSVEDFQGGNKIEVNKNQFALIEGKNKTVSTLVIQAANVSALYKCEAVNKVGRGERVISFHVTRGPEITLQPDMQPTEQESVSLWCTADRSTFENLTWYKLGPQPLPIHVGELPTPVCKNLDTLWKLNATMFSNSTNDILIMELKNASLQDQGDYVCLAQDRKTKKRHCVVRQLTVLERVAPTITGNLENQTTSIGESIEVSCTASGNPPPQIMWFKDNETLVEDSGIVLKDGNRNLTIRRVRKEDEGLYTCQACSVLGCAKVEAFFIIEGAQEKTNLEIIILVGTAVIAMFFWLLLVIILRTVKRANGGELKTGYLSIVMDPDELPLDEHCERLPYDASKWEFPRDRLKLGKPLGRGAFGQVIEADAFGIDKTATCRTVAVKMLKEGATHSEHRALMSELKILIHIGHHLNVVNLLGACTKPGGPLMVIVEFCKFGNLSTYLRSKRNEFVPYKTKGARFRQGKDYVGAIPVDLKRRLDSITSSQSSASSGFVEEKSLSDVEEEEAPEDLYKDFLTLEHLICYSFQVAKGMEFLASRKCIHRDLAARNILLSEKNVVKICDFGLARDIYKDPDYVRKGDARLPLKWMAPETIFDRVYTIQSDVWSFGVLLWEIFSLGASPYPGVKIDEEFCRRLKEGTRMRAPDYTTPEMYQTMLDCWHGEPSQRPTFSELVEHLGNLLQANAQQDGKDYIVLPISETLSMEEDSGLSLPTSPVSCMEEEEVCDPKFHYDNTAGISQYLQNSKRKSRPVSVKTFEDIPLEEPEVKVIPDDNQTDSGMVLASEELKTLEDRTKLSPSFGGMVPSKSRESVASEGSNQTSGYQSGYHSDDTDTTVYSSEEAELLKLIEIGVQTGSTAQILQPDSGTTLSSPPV

[19] = target: Serine/threonine-protein kinase pim-1 (Homo sapiens, UniProt P11309); assay type: functional
Sequence of Serine/threonine-protein kinase pim-1 (P11309 whole entry): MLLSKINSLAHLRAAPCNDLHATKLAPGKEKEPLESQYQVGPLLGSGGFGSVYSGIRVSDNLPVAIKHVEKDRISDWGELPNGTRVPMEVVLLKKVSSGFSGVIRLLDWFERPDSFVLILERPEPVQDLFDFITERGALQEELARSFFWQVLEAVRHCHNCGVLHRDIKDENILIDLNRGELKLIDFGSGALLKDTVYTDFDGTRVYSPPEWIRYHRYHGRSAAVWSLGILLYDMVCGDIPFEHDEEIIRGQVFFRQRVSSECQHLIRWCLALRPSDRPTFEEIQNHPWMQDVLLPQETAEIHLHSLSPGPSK

[20] = target: Dual specificity protein kinase CLK2 (Homo sapiens, UniProt P49760); assay type: functional
[21] = target: Dual specificity protein kinase CLK4 (Homo sapiens, UniProt Q9HAZ1); assay type: functional
[22] = target: Cyclin-dependent kinase 5 (Homo sapiens, UniProt Q00535); assay type: functional;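 further: CDK5 measured as one member of a kinase profiling panel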
Sequence of Cyclin-dependent kinase 5 (Q00535 whole entry): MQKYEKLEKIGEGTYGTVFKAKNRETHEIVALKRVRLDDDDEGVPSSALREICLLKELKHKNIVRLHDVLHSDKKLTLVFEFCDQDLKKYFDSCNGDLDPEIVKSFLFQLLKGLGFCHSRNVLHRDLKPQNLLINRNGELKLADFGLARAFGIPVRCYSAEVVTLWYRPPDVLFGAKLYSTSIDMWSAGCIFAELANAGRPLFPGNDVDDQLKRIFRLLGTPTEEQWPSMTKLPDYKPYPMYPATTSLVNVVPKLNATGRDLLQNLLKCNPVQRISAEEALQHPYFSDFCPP

[23] = target: Platelet-derived growth factor receptor alpha (Homo sapiens, UniProt P16234); experiment: Navigating the Kinome. Panel member name: PDGFRA; assay type: functional
Sequence of Platelet-derived growth factor receptor alpha (P16234 whole entry): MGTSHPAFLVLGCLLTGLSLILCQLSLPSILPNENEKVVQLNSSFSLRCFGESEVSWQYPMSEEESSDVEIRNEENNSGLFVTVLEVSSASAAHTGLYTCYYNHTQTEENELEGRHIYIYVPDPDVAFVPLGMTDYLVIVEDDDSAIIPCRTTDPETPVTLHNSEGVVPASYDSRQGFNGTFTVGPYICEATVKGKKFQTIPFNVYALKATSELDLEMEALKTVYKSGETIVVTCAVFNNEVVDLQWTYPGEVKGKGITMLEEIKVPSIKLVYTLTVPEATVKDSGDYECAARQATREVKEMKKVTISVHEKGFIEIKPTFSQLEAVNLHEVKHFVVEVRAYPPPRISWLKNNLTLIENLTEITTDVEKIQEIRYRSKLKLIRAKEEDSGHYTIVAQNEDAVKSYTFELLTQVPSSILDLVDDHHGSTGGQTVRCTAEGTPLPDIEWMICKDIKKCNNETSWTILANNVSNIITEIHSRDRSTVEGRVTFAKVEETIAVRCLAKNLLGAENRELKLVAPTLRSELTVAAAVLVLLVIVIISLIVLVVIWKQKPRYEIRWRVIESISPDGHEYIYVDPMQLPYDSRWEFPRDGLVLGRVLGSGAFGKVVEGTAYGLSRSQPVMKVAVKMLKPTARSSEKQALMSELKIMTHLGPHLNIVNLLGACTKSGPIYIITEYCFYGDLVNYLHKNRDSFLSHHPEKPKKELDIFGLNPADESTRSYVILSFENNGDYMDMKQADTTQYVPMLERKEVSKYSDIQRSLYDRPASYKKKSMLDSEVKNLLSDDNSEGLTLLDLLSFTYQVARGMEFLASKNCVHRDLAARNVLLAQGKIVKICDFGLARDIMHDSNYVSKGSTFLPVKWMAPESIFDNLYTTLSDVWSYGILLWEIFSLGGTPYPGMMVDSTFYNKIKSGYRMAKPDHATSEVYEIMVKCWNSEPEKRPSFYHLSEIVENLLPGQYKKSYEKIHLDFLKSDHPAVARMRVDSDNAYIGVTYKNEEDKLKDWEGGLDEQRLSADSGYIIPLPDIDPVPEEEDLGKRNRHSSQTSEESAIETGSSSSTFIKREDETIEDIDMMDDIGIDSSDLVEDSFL

[24] = target: Cyclin-dependent kinase 8 (Homo sapiens, UniProt P49336); experiment: Navigating the Kinome. Panel member name: CDK8; assay type: functional
Sequence of Cyclin-dependent kinase 8 (P49336 whole entry): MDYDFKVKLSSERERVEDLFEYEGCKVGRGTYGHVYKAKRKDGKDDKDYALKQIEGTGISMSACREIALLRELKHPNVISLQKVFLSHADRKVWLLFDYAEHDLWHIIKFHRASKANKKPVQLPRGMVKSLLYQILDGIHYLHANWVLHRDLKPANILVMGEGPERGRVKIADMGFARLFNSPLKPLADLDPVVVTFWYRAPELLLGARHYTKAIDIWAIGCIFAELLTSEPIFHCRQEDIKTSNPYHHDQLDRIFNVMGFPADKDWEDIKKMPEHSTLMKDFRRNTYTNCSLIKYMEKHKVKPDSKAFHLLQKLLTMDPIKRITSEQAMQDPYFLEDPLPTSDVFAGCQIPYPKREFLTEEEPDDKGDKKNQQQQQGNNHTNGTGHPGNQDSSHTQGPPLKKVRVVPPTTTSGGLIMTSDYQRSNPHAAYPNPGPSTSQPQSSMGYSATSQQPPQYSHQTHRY

[25] = target: T2, Tyrosine-protein kinase receptor TYRO3 (Homo sapiens, UniProt Q06418); assay type: functional;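 further: TYRO3 value obtained as one member of a kinome-wide profiling panel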
T2 sequence (Q06418 whole entry): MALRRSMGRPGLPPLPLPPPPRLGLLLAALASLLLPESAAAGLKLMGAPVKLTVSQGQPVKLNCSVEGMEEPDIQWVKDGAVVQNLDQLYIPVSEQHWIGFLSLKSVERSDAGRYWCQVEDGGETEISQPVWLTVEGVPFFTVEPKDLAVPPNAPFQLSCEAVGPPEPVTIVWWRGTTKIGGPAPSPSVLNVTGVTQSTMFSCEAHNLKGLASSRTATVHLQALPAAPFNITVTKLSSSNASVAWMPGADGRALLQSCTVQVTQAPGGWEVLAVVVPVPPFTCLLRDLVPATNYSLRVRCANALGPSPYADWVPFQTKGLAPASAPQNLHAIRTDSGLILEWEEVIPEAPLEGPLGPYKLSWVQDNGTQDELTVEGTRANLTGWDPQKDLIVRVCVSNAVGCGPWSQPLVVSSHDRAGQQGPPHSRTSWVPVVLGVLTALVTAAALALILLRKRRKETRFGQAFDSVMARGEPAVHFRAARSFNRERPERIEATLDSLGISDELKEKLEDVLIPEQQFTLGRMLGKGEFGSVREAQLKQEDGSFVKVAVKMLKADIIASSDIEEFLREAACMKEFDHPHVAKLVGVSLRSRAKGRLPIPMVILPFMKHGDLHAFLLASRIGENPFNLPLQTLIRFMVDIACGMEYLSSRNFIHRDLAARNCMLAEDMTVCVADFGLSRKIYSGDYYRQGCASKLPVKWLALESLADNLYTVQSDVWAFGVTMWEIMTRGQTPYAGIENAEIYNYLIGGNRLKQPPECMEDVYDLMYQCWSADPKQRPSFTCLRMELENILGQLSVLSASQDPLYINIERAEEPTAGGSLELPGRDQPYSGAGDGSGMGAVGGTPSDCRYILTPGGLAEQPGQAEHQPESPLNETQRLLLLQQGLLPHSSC

[26] = target: Receptor-type tyrosine-protein kinase FLT3 (Homo sapiens, UniProt P36888); assay type: functional;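 further: FLT3 was tested as one member of a kinome-wide kinase panel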

Ki (Aurora kinase B)	Ki [4]	Ki [5]	Ki [6]	Ki [7]	Ki (LIM domain kinase 1)	Ki [8]	Ki [9]	Ki [10]	Ki (Aurora kinase A)	Ki [11]	Ki [12]	Ki [13]	Ki (Activated CDC42 kinase 1)	Ki [14]	Ki [15]	Ki [16]	Structure (SMILES)	AC50 [1]	AC50 [2]	AC50 [3]	further results
–	–	–	–	–	–	–	–	–	–	–	–	–	–	–	–	–	Cc1ccc(C(=O)OCn2ncc(Cl)c(Cl)c2=O)cc1	4280 nM (active)	3150 nM (active)	5070 nM (active)	–
1000 nM (active)	1260 nM (active)	> 3980 nM (inactive)	> 6310 nM (inactive)	316 nM (active)	200 nM (active)	> 3160 nM (inactive)	3980 nM (active)	> 6310 nM (inactive)	501 nM (active)	> 3980 nM (inactive)	1260 nM (active)	> 2510 nM (inactive)	> 3980 nM (inactive)	1260 nM (active)	> 3980 nM (inactive)	> 3980 nM (inactive)	O=C(Nc1cccc(C2Nc3ccc4ccccc4c3C3C=CCC32)c1)c1ccc(F)cc1 (stereo not given)	–	–	–	Ki [17]: > 3980 nM (inactive); Ki [18]: > 2510 nM (inactive); Ki [19]: 316 nM (active); Ki [20]: > 3980 nM (inactive); Ki [21]: 1000 nM (active); Ki [22]: > 3160 nM (inactive); Ki [23]: > 2510 nM (inactive); Ki [24]: 794 nM (active); Ki [25]: 1260 nM (active); Ki [26]: > 3160 nM (inactive)
794 nM (active)	> 3980 nM (inactive)	> 3980 nM (inactive)	> 6310 nM (inactive)	> 2510 nM (inactive)	> 3160 nM (inactive)	> 3160 nM (inactive)	> 3980 nM (inactive)	> 6310 nM (inactive)	1580 nM (active)	> 3980 nM (inactive)	1000 nM (active)	794 nM (active)	2510 nM (active)	> 2510 nM (inactive)	1000 nM (active)	794 nM (active)	Cc1ccc(-c2cc(-c3cc(Br)ccc3O)[nH]c(=O)c2C#N)s1	–	–	–	Ki [17]: 3160 nM (active); Ki [18]: 631 nM (active); Ki [19]: 1000 nM (active); Ki [20]: > 3980 nM (inactive); Ki [21]: > 2510 nM (inactive); Ki [22]: > 3160 nM (inactive); Ki [23]: > 2510 nM (inactive); Ki [24]: 1260 nM (active); Ki [25]: 794 nM (active); Ki [26]: 631 nM (active)
–	–	–	–	–	–	–	–	–	–	–	–	–	–	–	–	–	CCCC(=O)NC(c1cccs1)c1cc(Cl)c2cccnc2c1O (stereo not given)	1470 nM (active)	4360 nM (active)	3160 nM (active)	–
